Reference: PMC7822874, “Chemoprotective antimalarials identified through quantitative high-throughput screening of Plasmodium blood and liver stage parasites” (Scientific Reports, 2021)
Like-named read-outs stand apart in the source and are kept apart here.

Assays:
[1] = in vitro; conditions: human, n = 1
[2] = in vitro; conditions: human
[3] = test system: Plasmodium falciparum Dd2 asexual blood stage parasites; experiment: microbe, parasite or virus in culture; design: species or system Plasmodium falciparum Dd2 in human erythrocytes; single determination (one 11-point concentration-response curve); conditions: Plasmodium falciparum, DD2, Erythrocyte, 72 h; read-out: AC50
[4] = test system: P. berghei-ANKA-GFP-LucCON liver stage parasites in HepG2-A16-CD81EGFP cells; experiment: P. berghei liver stage Pb-Luc assay, Method 1 (UCSD, 1536-well); assay type: cell-based, Plasmodium berghei; conditions: for Max Resp (signal direction of the dose response) / AC50 / Log AC50 (M): Method 1; for Max Resp (signal direction of the dose response): Decrease = decreasing P. berghei viability with dose, Increase = increasing signal, Inactive = no dose response; for activity at 1 µM / activity at 3 µM: 48 h, average of 2 wells on a 1536 well plate; for activity at 1 µM: 1 uM (compounds provided at 10 mM); for activity at 3 µM: 3 uM (compounds provided at 10 mM)
[5] = Hill fit, 50% of maximum activity response, read-out: AC50
[6] = log10 of molar AC50 from Hill fit
[7] = Plasmodium berghei, Hill fit, 50% of maximum activity response, read-out: AC50
[8] = Plasmodium berghei, log10 of molar AC50 from Hill fit, read-out: Log AC50 (converted)
[9] = HepG2-A16-CD81EGFP cells, uninfected
[10] = Plasmodium berghei, column 11, read-out: Pb-Luc (P. berghei liver stage), % of control, lower concentration, first repeat
[11] = Plasmodium berghei, column 12, read-out: Pb-Luc (P. berghei liver stage), % of control, lower concentration, second repeat
[12] = Plasmodium berghei, column 8, read-out: Pb-Luc (P. berghei liver stage), % of control, higher concentration, first repeat
[13] = Plasmodium berghei, column 9, read-out: Pb-Luc (P. berghei liver stage), % of control, higher concentration, second repeat

Structure (SMILES) | CC50 at 48 h ([1]; HepG2 cells) [nM] | AC50 [3] [nM] | Max Resp (signal direction of the dose response) [4] | AC50 [4, 5] [nM] | Log AC50 (M) [4, 6] [M] | AC50 [4, 7] [nM] | AC50 [4, 8] [nM] | viability at 66 h [2, 9] [%] | viability at 48 h, 1 µM [2, 9] [%] | viability at 48 h, 3 µM [2, 9] [%] | further results
c1ccc(-c2cccc(-c3ccccn3)n2)nc1 [MLS000048666-01] | – | – | – | – | – | – | – | – | – | – | CC50 at 48 h ([1]; hepg2): 15300 nM; viability at 66 h [2]: 17.7%
N=c1ccn(Cc2ccc(Cl)c(Cl)c2)cc1 [MLS000080112-01] | 30600 | 6680 | Decrease | 1580 | -5.800 | 1410 | 1410 | 99.6 | – | – | –
COc1cnc(-c2ccccn2)nc1Sc1c(Cl)cccc1Cl [MLS000325774-01] | 24300 | 2990 | – | – | – | – | – | – | 106 | 99 | –
Oc1ccc(-c2nnc(S)n2-c2ccc3c(c2)OCCO3)c(O)c1 [MLS000332001-01] | 17200 | 2660 | – | – | – | – | – | – | 98 | 95 | –
CCOC(=O)c1cnc(-n2nc(C)cc2C)nc1NC1CCCC1 [MLS000333072-01] | 17200 | 8410 | Inactive | – | – | – | – | 107 | – | – | –
CCNC(S)=N/N=C/c1sc(N2CCCCC2)nc1-c1cccs1 [MLS000335256-01] | 15300 | 668 | – | – | – | – | – | 103 | – | – | –
O=C1C(Nc2ccccc2)=C/C(=N\S(=O)(=O)c2cccs2)c2ccccc21 [MLS000374486-01] | 12200 | 335 | – | – | – | – | – | – | 101 | 76 | –
COc1ccccc1NS(=O)(=O)c1cc(NC(=O)c2ccc(Cl)nc2)ccc1Cl [MLS000417369-01] | 19300 | – | Decrease | 2510 | -5.600 | 2000 | 2000 | 96.5 | – | – | –
N=c1ccn(Cc2ccc(Cl)cc2Cl)cc1 [MLS000554049-01] | 19300 | 8410 | Inactive | – | – | – | – | – | 89.2 | – | viability at 48 h [2, 9]: 89.2%
CC(=O)N(C)C1=C(N2CCOCC2)C(=O)c2ccccc2C1=O [MLS000570886-01] | 10900 | 841 | Decrease | 1580 | -5.800 | 1260 | 1260 | 92.5 | – | – | –
c1ccc(CCNc2ccnc3cc4ccccc4cc23)cc1 [MLS000717866-01] | 10900 | 1680 | Decrease | 501 | -6.300 | 398 | 398 | 93.8 | – | – | –
O=C(Nc1ccc([N+](=O)[O-])cc1)Nc1nc(-c2ccc(Cl)s2)cs1 [MLS000722351-01] | 13700 | 2990 | Decrease | 224 | -6.650 | 178 | 178 | 90 | – | – | –
CCOC(=O)C1CCN(C(=O)c2c(C)oc3c2C(=O)c2ccccc2C3=O)CC1 [MLS000724686-01] | 15300 | 531 | – | – | – | – | – | 103 | – | – | –
Cc1ccc(Cl)cc1NC(=O)c1cc2ccccc2cc1O [MLS000738149-01] | – | 1500 | – | – | – | – | – | – | – | – | CC50 at 48 h ([1]; hepg2): 21700 nM; activity at 1 µM [4, 10]: 92%; activity at 1 µM [4, 11]: 94%; activity at 3 µM [4, 12]: 38%; activity at 3 µM [4, 13]: 81%; viability at 48 h, 1 µM [2]: 104%; viability at 48 h, 3 µM [2]: 69%
COc1cc(NC2CCCCC2O)c2nc(-c3ccc(Cl)cc3)ccc2c1 (centres unmarked) [MLS000766166-01] | 13700 | 5310 | – | – | – | – | – | – | 111 | 101 | –
CC(C)Nc1ccc(Nc2ccnc3cc4ccccc4cc23)cc1 [MLS000766754-01] | 27300 | – | – | – | – | – | – | – | 114 | 78 | activity at 1 µM [4, 10]: 101%; activity at 1 µM [4, 11]: 80%; activity at 3 µM [4, 12]: 10%; activity at 3 µM [4, 13]: 14%
c1ccc(CCNc2nc(-c3ccccn3)nc3ccccc23)cc1 [MLS000769840-01] | 10900 | 4730 | Inactive | – | – | – | – | – | 96.1 | – | viability at 48 h [2, 9]: 96.1%
O=C1Nc2ccccc2C1=NN=C(S)N1CCOCC1 [MLS000778251-01] | 15300 | 2110 | Decrease | 316 | -6.500 | 251 | 251 | 86.1 | – | – | –
Cc1ccc(NCC(=O)Nc2cccc(F)c2)cc1S(=O)(=O)N1CCCCCC1 [MLS001128515-01] | 27300 | – | – | – | – | – | – | – | 93 | 83 | –
O=C(NCCNc1ccnc2cc(Cl)ccc12)c1ccccc1F [MLS001163130-01] | 27300 | 1680 | – | – | – | – | – | – | 106 | 86 | –
